Legend:
GAK = system: GAK; parameters: method as in earlier work; settings: cited from earlier work
PRKAA2 = system: PRKAA2; parameters: method as in earlier work; settings: cited from earlier work
SGK3 = SGK3 (Homo sapiens, UniProt Q96BR1); assay: DiscoverX scanMAX competition binding assay; parameters: purchased Eurofins DiscoverX Corporation
Description: (§1) Based on its narrow profile when tested in the combined Nanosyn and TSA panels, GW296115 was included in the recently released Kinase Chemogenomic Set (KCGS)[15]. All of the data presented in the Introduction section was collected prior to the inclusion of GW296115 in KCGS and everything that follows has been subsequently generated. Since its inclusion in PKIS and more recently KCGS, we have carried out a broader round of screening at DiscoverX. This profiling data has not been previously released and is reported here for the first time. GW296115 was profiled against 403 wild type human kinases at 1 μM using the DiscoverX scanMAX screening platform, which employs an active site-directed competition binding assay to quantitatively measure interactions between test compounds and kinases, [16]. GW296115 inhibited 25 kinases > 90% at 1 μM, resulting in a selectivity index (S10) of 0.062 at 1 μM (Table S2, Fig. 1C)[17].
(§2) The scanMAX assays were performed at Eurofins DiscoverX Corporation as previously described.

BRSK1 = target: T1, BRSK1 (Homo sapiens, UniProt Q8TDC3); assay: DiscoverX scanMAX competition binding assay; parameters: purchased Eurofins DiscoverX Corporation
T1 sequence (Q8TDC3 1-778): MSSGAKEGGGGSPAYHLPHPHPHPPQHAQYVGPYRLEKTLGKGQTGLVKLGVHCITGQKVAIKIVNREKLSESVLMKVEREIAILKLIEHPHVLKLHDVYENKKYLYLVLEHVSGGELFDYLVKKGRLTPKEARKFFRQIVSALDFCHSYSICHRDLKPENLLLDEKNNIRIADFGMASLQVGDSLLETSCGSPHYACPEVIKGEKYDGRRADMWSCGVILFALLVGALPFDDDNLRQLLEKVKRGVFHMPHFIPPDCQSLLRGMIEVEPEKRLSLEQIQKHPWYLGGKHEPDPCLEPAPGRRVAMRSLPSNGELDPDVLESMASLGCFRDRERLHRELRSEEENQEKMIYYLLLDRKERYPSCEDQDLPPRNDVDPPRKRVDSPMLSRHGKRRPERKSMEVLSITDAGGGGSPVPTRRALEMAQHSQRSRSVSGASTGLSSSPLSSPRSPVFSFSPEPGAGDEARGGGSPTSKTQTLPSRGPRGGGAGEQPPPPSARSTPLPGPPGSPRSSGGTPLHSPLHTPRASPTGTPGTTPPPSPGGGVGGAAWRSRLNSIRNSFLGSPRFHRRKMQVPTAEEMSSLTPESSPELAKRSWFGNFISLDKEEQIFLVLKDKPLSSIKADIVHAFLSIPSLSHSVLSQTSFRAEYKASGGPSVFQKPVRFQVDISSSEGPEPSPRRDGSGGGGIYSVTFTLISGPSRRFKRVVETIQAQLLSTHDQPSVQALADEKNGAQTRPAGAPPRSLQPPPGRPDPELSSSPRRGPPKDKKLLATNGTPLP
Description: as §1, §2

ROS1 [1] = target: T2, ROS1 (Homo sapiens, UniProt P08922); assay: DiscoverX scanMAX competition binding assay; parameters: purchased Eurofins DiscoverX Corporation
T2 sequence (P08922 28-2347): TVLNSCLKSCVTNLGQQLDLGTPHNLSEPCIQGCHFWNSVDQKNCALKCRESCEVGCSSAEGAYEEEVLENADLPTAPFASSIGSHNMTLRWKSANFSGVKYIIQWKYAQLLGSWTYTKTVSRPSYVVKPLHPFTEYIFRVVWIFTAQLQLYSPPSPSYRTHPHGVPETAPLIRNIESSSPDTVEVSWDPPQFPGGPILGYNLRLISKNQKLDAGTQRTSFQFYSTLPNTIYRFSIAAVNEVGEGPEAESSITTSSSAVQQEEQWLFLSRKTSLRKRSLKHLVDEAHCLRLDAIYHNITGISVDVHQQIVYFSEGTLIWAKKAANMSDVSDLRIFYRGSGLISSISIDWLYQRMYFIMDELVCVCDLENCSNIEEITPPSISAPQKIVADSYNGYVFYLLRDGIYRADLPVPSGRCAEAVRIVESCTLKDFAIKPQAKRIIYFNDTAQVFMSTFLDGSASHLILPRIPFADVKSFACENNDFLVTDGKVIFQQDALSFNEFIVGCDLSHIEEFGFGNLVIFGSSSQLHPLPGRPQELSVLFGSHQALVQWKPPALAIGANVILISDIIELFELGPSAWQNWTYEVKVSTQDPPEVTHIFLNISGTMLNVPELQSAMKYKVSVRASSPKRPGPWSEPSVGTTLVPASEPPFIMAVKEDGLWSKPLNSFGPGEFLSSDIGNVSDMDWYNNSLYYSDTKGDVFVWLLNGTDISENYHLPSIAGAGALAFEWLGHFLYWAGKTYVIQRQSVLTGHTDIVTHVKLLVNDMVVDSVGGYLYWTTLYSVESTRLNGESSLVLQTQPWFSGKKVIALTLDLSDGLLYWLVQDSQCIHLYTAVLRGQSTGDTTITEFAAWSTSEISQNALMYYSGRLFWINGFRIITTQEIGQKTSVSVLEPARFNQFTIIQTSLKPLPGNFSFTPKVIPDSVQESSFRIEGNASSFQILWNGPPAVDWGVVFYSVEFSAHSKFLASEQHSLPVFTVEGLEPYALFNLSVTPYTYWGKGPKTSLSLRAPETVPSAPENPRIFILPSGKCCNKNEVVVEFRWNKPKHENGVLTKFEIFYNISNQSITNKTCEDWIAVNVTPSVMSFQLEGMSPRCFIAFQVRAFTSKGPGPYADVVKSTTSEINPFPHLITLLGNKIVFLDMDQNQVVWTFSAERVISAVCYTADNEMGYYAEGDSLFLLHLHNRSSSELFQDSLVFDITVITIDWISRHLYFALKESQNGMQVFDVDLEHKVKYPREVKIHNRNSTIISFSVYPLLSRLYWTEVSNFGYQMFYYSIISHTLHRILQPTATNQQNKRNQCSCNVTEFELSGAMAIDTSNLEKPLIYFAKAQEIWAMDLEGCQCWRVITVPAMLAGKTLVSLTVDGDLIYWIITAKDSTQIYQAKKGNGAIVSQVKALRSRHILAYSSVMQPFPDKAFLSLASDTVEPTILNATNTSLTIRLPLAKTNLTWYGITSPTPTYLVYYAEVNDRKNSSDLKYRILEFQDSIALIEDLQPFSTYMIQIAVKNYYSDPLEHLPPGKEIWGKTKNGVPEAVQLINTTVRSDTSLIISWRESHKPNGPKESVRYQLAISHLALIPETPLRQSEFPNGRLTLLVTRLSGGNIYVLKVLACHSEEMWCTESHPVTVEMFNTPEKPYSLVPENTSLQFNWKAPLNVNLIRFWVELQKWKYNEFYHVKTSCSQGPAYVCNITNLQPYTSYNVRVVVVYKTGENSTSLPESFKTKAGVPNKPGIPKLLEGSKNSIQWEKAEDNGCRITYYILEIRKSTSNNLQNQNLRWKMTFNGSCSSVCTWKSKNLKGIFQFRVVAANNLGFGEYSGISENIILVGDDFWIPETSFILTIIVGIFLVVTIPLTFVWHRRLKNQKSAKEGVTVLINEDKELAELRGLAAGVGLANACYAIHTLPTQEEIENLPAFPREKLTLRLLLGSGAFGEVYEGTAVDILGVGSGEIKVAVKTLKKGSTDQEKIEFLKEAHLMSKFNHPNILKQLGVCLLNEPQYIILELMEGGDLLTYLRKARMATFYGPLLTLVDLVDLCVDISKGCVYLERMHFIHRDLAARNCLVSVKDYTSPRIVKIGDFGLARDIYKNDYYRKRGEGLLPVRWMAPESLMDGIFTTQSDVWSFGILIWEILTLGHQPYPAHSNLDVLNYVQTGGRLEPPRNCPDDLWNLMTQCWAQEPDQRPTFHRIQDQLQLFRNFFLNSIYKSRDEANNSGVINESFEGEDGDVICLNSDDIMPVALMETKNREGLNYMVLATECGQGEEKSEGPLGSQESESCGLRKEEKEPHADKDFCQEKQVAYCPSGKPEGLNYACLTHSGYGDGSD
Description: as §1, §2

PIM2 = PIM2 (Homo sapiens, UniProt Q9P1W9); assay: DiscoverX scanMAX competition binding assay; parameters: purchased Eurofins DiscoverX Corporation
Sequence of PIM2 (Q9P1W9 whole entry): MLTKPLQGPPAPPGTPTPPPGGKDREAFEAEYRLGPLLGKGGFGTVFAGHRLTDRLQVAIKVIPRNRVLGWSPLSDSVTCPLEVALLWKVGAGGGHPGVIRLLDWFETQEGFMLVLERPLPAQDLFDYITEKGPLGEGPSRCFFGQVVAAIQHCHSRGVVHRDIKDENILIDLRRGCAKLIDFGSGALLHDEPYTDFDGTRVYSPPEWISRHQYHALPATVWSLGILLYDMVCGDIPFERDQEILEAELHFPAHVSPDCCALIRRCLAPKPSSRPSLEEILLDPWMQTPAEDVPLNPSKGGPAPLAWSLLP
Description: as §1, §2

CHEK2 = CHEK2 (Homo sapiens, UniProt O96017); assay: Eurofins kinase enzymatic radiometric assay; type: biochemical; parameters: purchased Eurofins; settings: Km of ATP, 9-point curve in duplicate
Description: (§3) Due to our interest in the activity of GW296115 on several understudied IDG kinases, we collected full dose–response curves for all wild type kinases inhibited ≥ 75% in the DiscoverX panel that were offered by Eurofins. Having data in orthogonal formats is a powerful way to confirm inhibitory activity and adds rigor to our results. Eurofins has kinase enzymatic radiometric assays for 35 of the kinases on this list (Table S2) and a kinase enzymatic LANCE assay for one additional kinase (MAP2K5/MEK5).
(§4) Eurofins kinase enzymatic radiometric assays were carried out at the Km of ATP in dose–response (9-pt curve in duplicate) for each kinase for which it was offered.

DAPK3/ZIPK = DAPK3/ZIPK (Homo sapiens, UniProt O43293); assay: Eurofins kinase enzymatic radiometric assay; type: biochemical; parameters: purchased Eurofins; settings: Km of ATP, 9-point curve in duplicate
Sequence of DAPK3/ZIPK (O43293 whole entry): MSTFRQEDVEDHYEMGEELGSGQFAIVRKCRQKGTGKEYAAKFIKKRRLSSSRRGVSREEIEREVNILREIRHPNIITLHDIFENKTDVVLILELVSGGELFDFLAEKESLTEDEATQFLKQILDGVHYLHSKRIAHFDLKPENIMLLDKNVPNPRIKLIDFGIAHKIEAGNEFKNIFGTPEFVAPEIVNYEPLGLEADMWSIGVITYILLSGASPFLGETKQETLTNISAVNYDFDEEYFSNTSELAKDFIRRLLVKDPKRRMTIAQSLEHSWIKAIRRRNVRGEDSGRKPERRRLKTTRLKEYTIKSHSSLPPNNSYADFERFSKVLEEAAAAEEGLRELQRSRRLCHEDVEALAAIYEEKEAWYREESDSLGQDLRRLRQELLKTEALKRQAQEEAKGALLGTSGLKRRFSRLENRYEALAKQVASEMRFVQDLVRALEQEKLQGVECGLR
Description: as §3, §4

SGK1/SGK = SGK1/SGK (Homo sapiens, UniProt O00141); assay: Eurofins kinase enzymatic radiometric assay; type: biochemical; parameters: purchased Eurofins; settings: Km of ATP, 9-point curve in duplicate
Sequence of SGK1/SGK (O00141 whole entry): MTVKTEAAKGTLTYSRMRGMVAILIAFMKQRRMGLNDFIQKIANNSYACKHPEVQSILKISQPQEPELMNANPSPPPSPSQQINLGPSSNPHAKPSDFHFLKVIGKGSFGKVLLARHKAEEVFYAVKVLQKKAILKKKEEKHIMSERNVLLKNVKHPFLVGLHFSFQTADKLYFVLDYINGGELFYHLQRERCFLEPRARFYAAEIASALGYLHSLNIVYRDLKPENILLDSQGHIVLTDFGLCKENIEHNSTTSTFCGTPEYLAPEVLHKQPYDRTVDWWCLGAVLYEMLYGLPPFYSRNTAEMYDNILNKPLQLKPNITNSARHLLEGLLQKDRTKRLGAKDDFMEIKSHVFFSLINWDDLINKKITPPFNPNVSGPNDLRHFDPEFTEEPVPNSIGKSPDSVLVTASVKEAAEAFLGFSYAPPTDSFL
Description: as §3, §4

ROS1 [2] = target: T2, ROS1; assay: Eurofins kinase enzymatic radiometric assay; type: biochemical; parameters: purchased Eurofins; settings: Km of ATP, 9-point curve in duplicate
Description: as §3, §4

BRSK2 = target: T3, BRSK2 (Homo sapiens, UniProt Q8IWQ3); assay: Eurofins kinase enzymatic radiometric assay; type: biochemical; parameters: purchased Eurofins; settings: Km of ATP, 9-point curve in duplicate
T3 sequence (Q8IWQ3 1-736): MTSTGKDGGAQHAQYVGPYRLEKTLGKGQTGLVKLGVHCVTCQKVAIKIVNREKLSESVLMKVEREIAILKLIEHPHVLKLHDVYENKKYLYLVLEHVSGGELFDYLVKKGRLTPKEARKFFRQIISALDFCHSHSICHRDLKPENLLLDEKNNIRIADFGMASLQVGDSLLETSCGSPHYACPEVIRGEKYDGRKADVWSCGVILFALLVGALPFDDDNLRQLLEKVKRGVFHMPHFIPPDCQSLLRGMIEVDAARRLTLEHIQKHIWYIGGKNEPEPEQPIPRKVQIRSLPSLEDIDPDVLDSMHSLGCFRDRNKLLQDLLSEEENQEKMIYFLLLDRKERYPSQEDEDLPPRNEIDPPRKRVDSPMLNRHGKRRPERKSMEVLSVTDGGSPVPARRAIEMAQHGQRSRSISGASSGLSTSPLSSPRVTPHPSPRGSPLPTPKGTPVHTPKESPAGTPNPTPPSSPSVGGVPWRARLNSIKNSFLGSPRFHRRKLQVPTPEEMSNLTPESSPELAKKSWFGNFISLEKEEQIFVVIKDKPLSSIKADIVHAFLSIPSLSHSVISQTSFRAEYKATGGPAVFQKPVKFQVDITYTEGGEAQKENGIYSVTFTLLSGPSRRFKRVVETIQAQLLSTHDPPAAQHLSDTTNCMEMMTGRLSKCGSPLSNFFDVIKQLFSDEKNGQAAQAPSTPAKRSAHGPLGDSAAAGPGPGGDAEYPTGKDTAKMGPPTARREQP
Description: as §3, §4

PLK4 = PLK4 (Homo sapiens, UniProt O00444); assay: Eurofins kinase enzymatic radiometric assay; type: biochemical; parameters: purchased Eurofins; settings: Km of ATP, 9-point curve in duplicate
Sequence of PLK4 (O00444 whole entry): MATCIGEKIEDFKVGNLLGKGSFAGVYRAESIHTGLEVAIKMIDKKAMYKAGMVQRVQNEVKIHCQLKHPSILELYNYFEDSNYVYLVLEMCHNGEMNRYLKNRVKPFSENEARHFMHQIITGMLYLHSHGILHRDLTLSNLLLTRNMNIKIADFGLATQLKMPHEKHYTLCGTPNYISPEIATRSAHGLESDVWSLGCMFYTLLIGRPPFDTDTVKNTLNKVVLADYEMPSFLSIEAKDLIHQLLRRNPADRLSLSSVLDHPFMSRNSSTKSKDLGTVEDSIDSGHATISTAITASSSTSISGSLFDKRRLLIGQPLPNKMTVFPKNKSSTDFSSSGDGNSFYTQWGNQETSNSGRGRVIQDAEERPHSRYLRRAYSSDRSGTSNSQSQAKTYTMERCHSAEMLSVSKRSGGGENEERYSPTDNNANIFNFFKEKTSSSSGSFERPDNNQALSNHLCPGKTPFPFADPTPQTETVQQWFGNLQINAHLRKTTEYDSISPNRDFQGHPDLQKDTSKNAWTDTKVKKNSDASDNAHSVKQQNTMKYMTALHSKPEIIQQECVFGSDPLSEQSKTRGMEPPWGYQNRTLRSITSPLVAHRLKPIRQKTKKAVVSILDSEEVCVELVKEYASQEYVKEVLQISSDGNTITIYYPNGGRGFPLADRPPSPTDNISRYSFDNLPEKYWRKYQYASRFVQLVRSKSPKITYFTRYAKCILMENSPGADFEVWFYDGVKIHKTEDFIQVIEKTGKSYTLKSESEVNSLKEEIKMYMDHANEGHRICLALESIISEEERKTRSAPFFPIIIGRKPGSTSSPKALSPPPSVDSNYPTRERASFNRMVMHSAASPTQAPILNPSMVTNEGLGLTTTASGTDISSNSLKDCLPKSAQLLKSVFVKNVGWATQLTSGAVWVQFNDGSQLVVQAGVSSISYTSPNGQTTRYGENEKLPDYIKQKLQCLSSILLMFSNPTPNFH
Description: as §3, §4

PRKG2/PKG2 = PRKG2/PKG2 (Homo sapiens, UniProt Q13237); assay: Eurofins kinase enzymatic radiometric assay; type: biochemical; parameters: purchased Eurofins; settings: Km of ATP, 9-point curve in duplicate
Description: as §3, §4

Sequence of SGK3 (Q96BR1 whole entry): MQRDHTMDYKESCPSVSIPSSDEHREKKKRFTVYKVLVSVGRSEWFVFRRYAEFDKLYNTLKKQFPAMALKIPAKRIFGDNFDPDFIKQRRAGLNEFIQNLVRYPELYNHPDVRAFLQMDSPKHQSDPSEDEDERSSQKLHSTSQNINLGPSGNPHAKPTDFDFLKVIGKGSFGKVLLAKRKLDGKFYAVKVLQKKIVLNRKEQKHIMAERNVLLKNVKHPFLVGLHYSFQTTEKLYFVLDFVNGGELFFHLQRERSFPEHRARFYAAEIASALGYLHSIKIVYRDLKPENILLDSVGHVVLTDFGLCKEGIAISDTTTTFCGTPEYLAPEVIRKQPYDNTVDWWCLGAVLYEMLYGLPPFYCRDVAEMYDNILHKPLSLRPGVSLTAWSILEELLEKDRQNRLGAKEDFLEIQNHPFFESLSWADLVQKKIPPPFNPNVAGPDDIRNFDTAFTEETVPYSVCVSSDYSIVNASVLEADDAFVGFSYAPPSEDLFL

Compound: COc1ccc2[nH]c3c4[nH]c5ccc(OC)cc5c4c4c(c3c2c1)C(=O)NC4=O [GW296115]
- TSA ΔTm at 10 μM (°C) (GAK): 8.4 °C
- TSA ΔTm at 10 μM (°C) (PRKAA2): 10.6 °C
- inhibition at 1 µM (SGK3): 86%
- inhibition at 1 µM (BRSK1): 82%
- inhibition at 1 µM (ROS1 [1]): 76%
- inhibition at 1 µM (PIM2): 83%
- IC50 (CHEK2): 2.6 nM
- IC50 (DAPK3/ZIPK): 100 nM
- IC50 (SGK1/SGK): 710 nM
- IC50 (ROS1 [2]): > 10000 nM
- IC50 (BRSK2): 8.4 nM
- IC50 (PLK4): 17 nM
- IC50 (PRKG2/PKG2): 6.3 nM

— PMC7522982, “PKIS deep dive yields a chemical starting point for dark kinases and a cell active BRSK2 inhibitor” (Scientific Reports, 2020)
